In patent publication EP0348560A1, “Oral composition” (LION CORPORATION, priority 1988, dated 1990):

Test system: Streptococcus mutans (strain 6715)
Experiment: Incubation Adhesion Method: inhibition of dental plaque formation
Type: cell-based
Conditions: for Synergistic effect: class by inhibiting rate; for formation of dental plaque: combined with α-bisabolol, conclusion in words from Table 1
Method: α-Bisabolol, menthol, eugenol, 3-octanol, methyl salicylate, carvone and cineol are used as samples to evaluate their effects on inhibiting the formation of dental plaque by Incubation Adhesion Method.
Incubation Adhesion Method
A predetermined amount (0, 4 or 8 µg/mℓ) of α-bisabolol and 125 µg/mℓ of menthol, eugenol, 3-octanol, methyl salicylate, carvone or cineol were added to a BHI (brain heart infusion) medium containing 1% of sucrose. Then, Streptococcus mutans (strain 6715) was inoculated to the medium and incubated at 37°C for 16 hours under an anaerobic condition (N₂: CO₂ :H₂ = 80:10:10). After incubation, the resulting dental plaque was washed twice with water and dispersed in the same amount of 0.5-N NaOH solution. To determine the amount of dental plaque formed, the suspension of dental plaque was examined for absorbance (turbidity) at a wavelength of 550 nm.
Inhiviting rate of dental plaque formation (%) [formula] A : Absorbance (O.D. 550nm) of the control B : Absorbance (O.D. 550nm) of the sample

[1] = 125 µg/mℓ sample alone, content of α-bisabolol 0 µg/mℓ, BHI medium with 1% sucrose, 37°C, 16 hours, anaerobic
[2] = 125 µg/mℓ sample combined with α-bisabolol 4 µg/mℓ, BHI medium with 1% sucrose, 37°C, 16 hours, anaerobic
[3] = 125 µg/mℓ sample combined with α-bisabolol 4 µg/mℓ
[4] = 125 µg/mℓ sample combined with α-bisabolol 8 µg/mℓ, BHI medium with 1% sucrose, 37°C, 16 hours, anaerobic
[5] = 125 µg/mℓ sample combined with α-bisabolol 8 µg/mℓ
[6] = α-bisabolol 4 µg/mℓ alone (line 'Control', no sample added)
[7] = α-bisabolol 8 µg/mℓ alone (line 'Control', no sample added)

| Compound | Amount of dental plaque formation (O.D., 550nm) [1] [O.D.] | Inhibiting rate of dental plaque formation (%) [1] [%] | Amount of dental plaque formation (O.D., 550nm) [2] [O.D.] | Inhibiting rate of dental plaque formation (%) [2] [%] | Synergistic effect [3] | Amount of dental plaque formation (O.D., 550nm) [4] [O.D.] | Inhibiting rate of dental plaque formation (%) [4] [%] | Synergistic effect [5] | formation of dental plaque | Amount of dental plaque formation (O.D., 550nm) [6] [O.D.] | Inhibiting rate of dental plaque formation (%) [6] [%] | Amount of dental plaque formation (O.D., 550nm) [7] [O.D.] | Inhibiting rate of dental plaque formation (%) [7] [%] |
| --- | --- | --- | --- | --- | --- | --- | --- | --- | --- | --- | --- | --- | --- |
| CC12CCC(CC1)C(C)(C)O2 [Cineol, cineol, reference compound] | 0.62 | 0 | 0.59 | 4.8 | × (Inhibiting rate is less than 20%) | 0.53 | 14.5 | × (Inhibiting rate is less than 20%) |  |  |  |  |  |
| C=C(C)C1CC=C(C)C(=O)C1 (stereo not shown) [Carvone, carvone, reference compound] | 0.62 | 0 | 0.60 | 3.2 | × (Inhibiting rate is less than 20%) | 0.42 | 32.3 | Δ (Inhibiting rate is not less than 20%, less than 50 %) |  |  |  |  |  |
| C=CCc1ccc(O)c(OC)c1 [Eugenol, eugenol] | 0.62 | 0 | 0.60 | 3.2 | × (Inhibiting rate is less than 20%) | 0.02 | 96.8 | ⓞ (Inhibiting rate is not less than 80%) | synergistically suppressed |  |  |  |  |
| α-bisabolol |  |  |  |  |  |  |  |  |  | 0.61 | 1.6 | 0.60 | 3.2 |
| COC(=O)c1ccccc1O [Methyl salicylate, methyl salicylate, reference compound] | 0.61 | 1.6 | 0.61 | 1.6 | × (Inhibiting rate is less than 20%) | 0.39 | 37.1 | Δ (Inhibiting rate is not less than 20%, less than 50 %) |  |  |  |  |  |
| CC1CCC(C(C)C)C(O)C1 (stereo not shown) [Menthol, menthol] | 0.60 | 3.2 | 0.01 | 98.4 | ⓞ (Inhibiting rate is not less than 80%) | 0.01 | 98.4 | ⓞ (Inhibiting rate is not less than 80%) | synergistically suppressed |  |  |  |  |
| CCCCCC(O)CC (stereo not shown) [3-Octanol, 3-octanol] | 0.59 | 4.8 | 0.58 | 6.5 | × (Inhibiting rate is less than 20%) | 0.06 | 90.3 | ⓞ (Inhibiting rate is not less than 80%) | synergistically suppressed |  |  |  |  |
